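Compound exposure: 48 hours, 5 concentrations, 96-well plates. GI50 marks 50% less growth. TGI denotes the concentration required for complete inhibition of growth.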
Legend:
Assay in all cases: NCI tumour cell line growth inhibition, 48 h
786-0 renal = system: 786-0 renal
A498 renal = system: A498 renal
A549 NSCLC = system: A549 NSCLC
ACHN renal = system: ACHN renal
BT-549 breast = system: BT-549 breast
CAKI-1 renal = system: CAKI-1 renal
CCRF-CEM leukemia = system: CCRF-CEM leukemia
COLO 205 colon = system: COLO 205 colon
DU-145 prostate = system: DU-145 prostate
EKVX NSCLC = system: EKVX NSCLC
HCC-2998 colon = system: HCC-2998 colon
HCT-116 colon = system: HCT-116 colon
HCT-15 colon = system: HCT-15 colon
HL-60(TB) leukemia = system: HL-60(TB) leukemia
HOP-62 NSCLC = system: HOP-62 NSCLC
HOP-92 NSCLC = system: HOP-92 NSCLC
HS 578T breast = system: HS 578T breast
HT29 colon = system: HT29 colon
IGROV1 ovarian = system: IGROV1 ovarian
K-562 leukemia = system: K-562 leukemia
KM12 colon = system: KM12 colon
LOX IMVI melanoma = system: LOX IMVI melanoma
M14 melanoma = system: M14 melanoma
MALME-3M melanoma = system: MALME-3M melanoma
MCF7 breast = system: MCF7 breast
MDA-MB-231 breast = system: MDA-MB-231 breast
MDA-MB-435 = system: MDA-MB-435
MDA-MB-468 breast = system: MDA-MB-468 breast
MOLT-4 leukemia = system: MOLT-4 leukemia
NCI-H226 lung = system: NCI-H226 lung
NCI-H23 lung = system: NCI-H23 lung
NCI-H460 lung = system: NCI-H460 lung
NCI-H522 lung = system: NCI-H522 lung
NCI/ADR-RES ovarian = system: NCI/ADR-RES ovarian
OVCAR-3 ovarian = system: OVCAR-3 ovarian
OVCAR-4 ovarian = system: OVCAR-4 ovarian
OVCAR-5 ovarian = system: OVCAR-5 ovarian
OVCAR-8 ovarian = system: OVCAR-8 ovarian
PC-3 prostate = system: PC-3 prostate
RPMI-8226 leukemia = system: RPMI-8226 leukemia
RXF 393 renal = system: RXF 393 renal
SF-268 CNS = system: SF-268 CNS
SF-295 CNS = system: SF-295 CNS
SF-539 CNS = system: SF-539 CNS
SK-MEL-2 melanoma = system: SK-MEL-2 melanoma
SK-MEL-28 melanoma = system: SK-MEL-28 melanoma
SK-MEL-5 melanoma = system: SK-MEL-5 melanoma
SK-OV-3 ovarian = system: SK-OV-3 ovarian
SN12C renal = system: SN12C renal
SNB-19 CNS = system: SNB-19 CNS
SNB-75 CNS = system: SNB-75 CNS
SR leukemia = system: SR leukemia
SW-620 colon = system: SW-620 colon
T-47D breast = system: T-47D breast
TK-10 renal = system: TK-10 renal
U251 CNS = system: U251 CNS
UACC-257 melanoma = system: UACC-257 melanoma
UACC-62 melanoma = system: UACC-62 melanoma
UO-31 renal = system: UO-31 renal

In the case of `Cc1ccc(NC(=O)N/N=C/c2c[nH]c3ccccc23)c(C)c1`, the GI50 (786-0 renal) is reported as 481 nM, the TGI (786-0 renal) is reported as 13900 nM and the GI50 (A498 renal) is reported as 12700 nM. The TGI (A498 renal) was 38400 nM, the GI50 (A549 NSCLC) was 588 nM and the TGI (A549 NSCLC) was 45900 nM. For the same compound, the GI50 (ACHN renal) was 637 nM, the TGI (ACHN renal) was over 57600 nM and the GI50 (BT-549 breast) was 596 nM. For the same compound, the TGI (BT-549 breast) was 23900 nM, the GI50 (CAKI-1 renal) was 261 nM and the TGI (CAKI-1 renal) was over 44000 nM. It also gave a GI50 (CCRF-CEM leukemia) of 308 nM, a TGI (CCRF-CEM leukemia) of over 40000 nM and a GI50 (COLO 205 colon) of 361 nM. For the same compound, the TGI (COLO 205 colon) was 1590 nM, the GI50 (DU-145 prostate) was 432 nM and the TGI (DU-145 prostate) was 19400 nM. It also gave a GI50 (EKVX NSCLC) of 469 nM, a TGI (EKVX NSCLC) of over 100000 nM and a GI50 (HCC-2998 colon) of 492 nM. For the same compound, the TGI (HCC-2998 colon) was 4530 nM, the GI50 (HCT-116 colon) was 245 nM and the TGI (HCT-116 colon) was 4790 nM. For the same compound, the GI50 (HCT-15 colon) was 78.5 nM, the TGI (HCT-15 colon) was over 34900 nM and the GI50 (HL-60(TB) leukemia) was 99.7 nM. For the same compound, the TGI (HL-60(TB) leukemia) was 2730 nM, the GI50 (HOP-62 NSCLC) was 343 nM and the TGI (HOP-62 NSCLC) was 26200 nM. It also gave a GI50 (HOP-92 NSCLC) of 1600 nM, a TGI (HOP-92 NSCLC) of 19000 nM and a GI50 (HS 578T breast) of 281 nM. It also gave a TGI (HS 578T breast) of 23100 nM, a GI50 (HT29 colon) of 164 nM and a TGI (HT29 colon) of 1040 nM. The GI50 (IGROV1 ovarian) was 378 nM, the TGI (IGROV1 ovarian) was 20100 nM and the GI50 (K-562 leukemia) was 41.8 nM. The TGI (K-562 leukemia) was over 100000 nM, the GI50 (KM12 colon) was 205 nM and the TGI (KM12 colon) was 10100 nM. It also gave a GI50 (LOX IMVI melanoma) of 365 nM, a TGI (LOX IMVI melanoma) of 8330 nM and a GI50 (M14 melanoma) of 175 nM. It also gave a TGI (M14 melanoma) of 12800 nM, a GI50 (MALME-3M melanoma) of 241 nM and a TGI (MALME-3M melanoma) of 19100 nM. The GI50 (MCF7 breast) was 235 nM, the TGI (MCF7 breast) was 27900 nM and the GI50 (MDA-MB-231 breast) was 495 nM. It also gave a TGI (MDA-MB-231 breast) of 5410 nM, a GI50 (MDA-MB-435) of 28.1 nM and a TGI (MDA-MB-435) of 110 nM. For the same compound, the GI50 (MDA-MB-468 breast) was 178 nM, the TGI (MDA-MB-468 breast) was 543 nM and the GI50 (MOLT-4 leukemia) was 269 nM. For the same compound, the TGI (MOLT-4 leukemia) was over 32800 nM, the GI50 (NCI-H226 lung) was 2500 nM and the TGI (NCI-H226 lung) was over 100000 nM. For the same compound, the GI50 (NCI-H23 lung) was 418 nM, the TGI (NCI-H23 lung) was 12200 nM and the GI50 (NCI-H460 lung) was 357 nM. It also gave a TGI (NCI-H460 lung) of 15700 nM, a GI50 (NCI-H522 lung) of 37.9 nM and a TGI (NCI-H522 lung) of 327 nM. It also gave a GI50 (NCI/ADR-RES ovarian) of 68.9 nM, a TGI (NCI/ADR-RES ovarian) of 631 nM and a GI50 (OVCAR-3 ovarian) of 138 nM. The TGI (OVCAR-3 ovarian) was 1800 nM, the GI50 (OVCAR-4 ovarian) was 5490 nM and the TGI (OVCAR-4 ovarian) was over 100000 nM. The GI50 (OVCAR-5 ovarian) was 565 nM, the TGI (OVCAR-5 ovarian) was 15500 nM and the GI50 (OVCAR-8 ovarian) was 378 nM. For the same compound, the TGI (OVCAR-8 ovarian) was 3110 nM, the GI50 (PC-3 prostate) was 517 nM and the TGI (PC-3 prostate) was over 100000 nM. The GI50 (RPMI-8226 leukemia) was 373 nM, the TGI (RPMI-8226 leukemia) was 25600 nM and the GI50 (RXF 393 renal) was 267 nM. It also gave a TGI (RXF 393 renal) of 6230 nM, a GI50 (SF-268 CNS) of 828 nM and a TGI (SF-268 CNS) of 23400 nM. The GI50 (SF-295 CNS) was 239 nM, the TGI (SF-295 CNS) was 12000 nM and the GI50 (SF-539 CNS) was 217 nM. The TGI (SF-539 CNS) was 700 nM, the GI50 (SK-MEL-2 melanoma) was 258 nM and the TGI (SK-MEL-2 melanoma) was 627 nM. The GI50 (SK-MEL-28 melanoma) was 1450 nM, the TGI (SK-MEL-28 melanoma) was over 79300 nM and the GI50 (SK-MEL-5 melanoma) was 226 nM. It also gave a TGI (SK-MEL-5 melanoma) of 8130 nM, a GI50 (SK-OV-3 ovarian) of 391 nM and a TGI (SK-OV-3 ovarian) of 25300 nM. It also gave a GI50 (SN12C renal) of 419 nM, a TGI (SN12C renal) of 8970 nM and a GI50 (SNB-19 CNS) of 554 nM. The TGI (SNB-19 CNS) was 27200 nM, the GI50 (SNB-75 CNS) was 343 nM and the TGI (SNB-75 CNS) was 5600 nM. It also gave a GI50 (SR leukemia) of 33.6 nM, a TGI (SR leukemia) of over 21900 nM and a GI50 (SW-620 colon) of 203 nM. It also gave a TGI (SW-620 colon) of over 100000 nM, a GI50 (T-47D breast) of 363 nM and a TGI (T-47D breast) of 78000 nM. The GI50 (TK-10 renal) was 2590 nM, the TGI (TK-10 renal) was 39600 nM and the GI50 (U251 CNS) was 316 nM. For the same compound, the TGI (U251 CNS) was 12800 nM, the GI50 (UACC-257 melanoma) was 573 nM and the TGI (UACC-257 melanoma) was 47500 nM. The GI50 (UACC-62 melanoma) was 151 nM, the TGI (UACC-62 melanoma) was 5270 nM and the GI50 (UO-31 renal) was 458 nM. For the same compound, the TGI (UO-31 renal) was over 67000 nM.

Source: PubChem BioAssay (NCI)
